Where two headings read alike, the source gives them in different places.
How the values were obtained:
A549 = test: MTS assay, IC50 in LKB1-null NSCLC cell line A549; type: cell-based; details: Homo sapiens
Source text: (§1) 2000 cells were seed in each well of a 96-well plate, and exposed to BMS754807 or 2-DG at indicated concentration for 48 hrs.
(§2) Analysis focused on NSCLC cell lines with LKB1 inactivation mutation. A549 and H460 both contain a Q37 to nonsense mutation, and H157 contains exon 2 and 3 deletion. All these mutations results in the loss of LKB1 protein function. MTS assay was used to measure the IC50 of BMS754807 and 2-DG in these cells (FIG. 1).

H460 [1] = test: MTS assay, IC50 in LKB1-null NSCLC cell line H460; type: cell-based; details: Homo sapiens
Source text: as §1, §2

H157 [2] = test: MTS assay, IC50 in LKB1-null NSCLC cell line H157; type: cell-based; details: Homo sapiens
Source text: as §1, §2

H460 [3] = test: Combination index analysis of cell proliferation, H460; type: cell-based; details: Homo sapiens
H157 [4] = test: Combination index analysis of cell proliferation, H157; type: cell-based; details: Homo sapiens
AKT [5] = details: through IGF1R and PI3K; cited from earlier work
[6] = target: IGF-I and IGF-binding protein 3 (IGFBP3) (Homo sapiens, UniProt P05019+P17936); details: 2-DG treatments; cited from earlier work
Sequence of IGF-I and IGF-binding protein 3 (IGFBP3) (P17936 28-291, species assumed): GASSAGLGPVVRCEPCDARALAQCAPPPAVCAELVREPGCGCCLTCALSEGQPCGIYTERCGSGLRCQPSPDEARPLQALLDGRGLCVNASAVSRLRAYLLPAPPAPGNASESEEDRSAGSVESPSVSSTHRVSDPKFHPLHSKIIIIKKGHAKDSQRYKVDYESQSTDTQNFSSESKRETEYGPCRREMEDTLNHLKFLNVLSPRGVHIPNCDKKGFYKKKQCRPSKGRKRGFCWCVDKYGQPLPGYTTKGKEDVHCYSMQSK
Sequence of IGF-I and IGF-binding protein 3 (IGFBP3) (P05019 49-118 limits assumed, species assumed): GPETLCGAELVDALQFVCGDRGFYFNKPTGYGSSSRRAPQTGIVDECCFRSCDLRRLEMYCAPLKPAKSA

IGF1R = test: 2-DG induced IGF1R phosphorylation in LKB1-null NSCLC cell lines; type: cell-based
AKT [7] = test: 2-DG induced AKT phosphorylation in LKB1-null NSCLC cell lines; type: cell-based; details: for Akt phosphorylation induced by 2-DG: FIG. 2, cell line not named at the place; for 2-DG induced AKT phosphorylation: pre-incubated with 10 μM BMS754807 for 30 minutes, then 25 mM 2-DG
Protocol: Whether 2-DG induced AKT phosphorylation can be blocked by BMS754807 was determined. LKB1-null NSCLC cell lines was pre-incubated with 10 μM of BMS754807 for 30 minutes, and then stimulated with 25 mM 2-DG to induce phosphorylation. BMS754807 blocked 2-DG induced IGF1R and AKT phosphorylation in H460, and H157 cells.

Molecule O=CC[C@@H](O)[C@H](O)[C@H](O)CO [2-DG, 2-Deoxyglucose] has an IC50 (A549; A549, MTS assay, 48 hrs, read-out: IC50) of 15.7 mM, an IC50 (H460 [1]; NCI-H460, H460, MTS assay, 48 hrs, read-out: IC50) of 14.1 mM and an IC50 (H157 [2]; NCI-H157, H157, MTS assay, 48 hrs, read-out: IC50) of 21.8 mM. It also gave a viability at 2500 µM (H460 [3]; NCI-H460, 2-DG 2.5 mM, read-out: FA2-DG (fraction growth inhibition by 2-DG alone)) of 95%, a viability at 5000 µM (H460 [3]; NCI-H460, 2-DG 5.0 mM, read-out: FA2-DG (fraction growth inhibition by 2-DG alone)) of 81% and a viability at 10000 µM (H460 [3]; NCI-H460, 2-DG 10.0 mM, read-out: FA2-DG (fraction growth inhibition by 2-DG alone)) of 71%. The viability at 2500 µM (H157 [4]; NCI-H157, 2-DG 2.5 mM, read-out: FA2-DG (fraction growth inhibition by 2-DG alone)) was 93%, the viability at 5000 µM (H157 [4]; NCI-H157, 2-DG 5.0 mM, read-out: FA2-DG (fraction growth inhibition by 2-DG alone)) was 80% and the viability at 10000 µM (H157 [4]; NCI-H157, 2-DG 10.0 mM, read-out: FA2-DG (fraction growth inhibition by 2-DG alone)) was 69%. The “activation of prosurvival oncoprotein AKT” value (AKT [5]) was “activates” and the “binding between IGF-I and IGFBP3” value [6] was “disrupted”.
For CC1(C(=O)Nc2ccc(F)nc2)CCCN1c1nc(Nc2cc(C3CC3)[nH]n2)c2cccn2n1 (stereo not shown) [BMS-754807, 1-(4-((5-cyclopropyl-1H-pyrazol-3-yl)amino)pyrrolo[2,1-f][1,2,4]triazin-2-yl)-N-(6-fluoropyridin-3-yl)-2-methylpyrrolidine-2-carboxamide], the IC50 (A549; A549, 48 h) was 0.0166 mM, the IC50 (H460 [1]; NCI-H460, 48 h) was 0.00325 mM and the IC50 (H157 [2]; NCI-H157, 48 h) was 0.0108 mM. It also gave a viability at 5 µM (H460 [3]; NCI-H460, BMS-754807 5.0 uM, read-out: FABMS-754807 (fraction growth inhibition by BMS-754807 alone)) of 80%, a viability at 10 µM (H460 [3]; NCI-H460, BMS-754807 10.0 uM, read-out: FABMS-754807 (fraction growth inhibition by BMS-754807 alone)) of 69% and a viability at 5 µM (H157 [4]; NCI-H157, BMS-754807 5.0 uM, read-out: FABMS-754807 (fraction growth inhibition by BMS-754807 alone)) of 99%. The viability at 10 µM (H157 [4]; NCI-H157, BMS-754807 10.0 uM, read-out: FABMS-754807 (fraction growth inhibition by BMS-754807 alone)) was 82%, the “2-DG induced IGF1R phosphorylation” value (IGF1R; FIG. 2, cell line not named at the place) was “blocked” and the “2-DG induced IGF1R phosphorylation” value (IGF1R; H157 cells, pre-incubated with 10 μM BMS754807 for 30 minutes, then 25 mM 2-DG) was “blocked”. The “2-DG induced IGF1R phosphorylation” value (IGF1R; H460 cells, pre-incubated with 10 μM BMS754807 for 30 minutes, then 25 mM 2-DG) was “blocked”, the “Akt phosphorylation induced by 2-DG” value (AKT [7]) was “block” and the “Akt phosphorylation induced by 2-DG” value (AKT [7]; listed as BMS754807) was “blocked”. For the same molecule, the “2-DG induced AKT phosphorylation” value (AKT [7]; H157 cells) was “blocked” and the “2-DG induced AKT phosphorylation” value (AKT [7]; H460 cells) was “blocked”.

From patent US20140288013A1, “METHODS AND COMPOSITIONS FOR THE MANAGEMENT OF CANCER USING 2-DG AND AN IGF-IR INHIBITOR” (priority 2011, published 2014)
